How the values were obtained:
dermal-derived UMC = assay: Culture of UMC in plasma clots to generate neurons; assay type: cell-based, human; conditions: aFGF as the only growth factor in the culture medium
Description: The presence of higher concentration of Ca^2+ than normally present in culture medium (i.e., about 2 mM) was essential for growth of neurons in the plasma clot UMC cultures.
Lyophilized bovine plasma (Sigma Aldrich Co., St. Louis, Mo.; Cat. No. P-4639) was reconstituted with an appropriate volume of tissue culture medium not containing heparin, e.g., DMEM or Neurobasal medium (see above). An appropriate volume of a stock solution of CaCl2 (e.g., 300 mM) was added to a series of plastic tissue culture dishes (one set having a diameter of 30 mm and another set having a diameter of 60 mm) so as to give a final concentration of 15 mM after addition of plasma. Plasma was added to the culture dishes (1 ml to 30 mm dishes and 2 ml to the 60 mm dishes), which were swirled in order to mix the CaCl2 and plasma. […]
The dishes were then incubated at room temperature or 37° C. until the plasma had clotted. […] The dishes were then stored in a tissue culture incubator at 37° C. in at atmosphere of 10% CO2 until ready for use. A small quantity (about 5 cells to about 10^5 cells per clot) of dermal-derived UMC prepared as described in Example 1 was added to each dish and the cells were allowed to settle onto each clot. […]

[1] = test system: UMC from skin and adipose tissue; assay: Culture of non-adherent UMC from skin and adipose tissue; assay type: cell-based, human
Description: Cells were harvested and enriched in vitro for UMC by initiation of cultures from a skin biopsy obtained from a normal healthy human volunteer as follows. Biopsies of about 10 to about 200 mm^3 were obtained from the post auriculum area, and fibroblast tissue culture initiated as described above using DMEM containing 4500 mg/L D-glucose, 2 mM L-glutamine, nonessential amino acids, and 10% FBS. Colonies of non-adherent, actively growing cells were observed after adherent fibroblasts had reached full confluence in passage two or three. This process could be shortened by initiation of the culture in low serum and by the presence of 5 ng/ml aFGF, or by growth of the cells in a plasma clot directly from tissue (see Example 2) with addition of 300 mM CaCl2 to a final concentration of 15 mM. […] The colonies were collected by aspiration of culture medium containing the floating colonies and centrifugation of this medium. The cells pelleted by centrifugation were transferred to new tissue culture vessels by direct seeding in fresh culture medium containing aFGF and heparin (DMEM containing 4500 mg/L D-glucose, 2 mM L-glutamine, 2.5% heat inactivated FBS, 5 ng/mL recombinant human aFGF, and 5 μg/mL heparin). The cell suspension was added to fresh tissue culture flasks, which were incubated at 37° C. […]

aFGF: recombinant human acidic fibroblast growth factor
growth of human neurons (dermal-derived UMC): Enhanced growth
morphology of cells in culture ([1]; in the presence of aFGF): morphologically homogeneous in appearance and had a cobblestone-like morphology
fate of cells in culture ([1]; upon removal of aFGF from the culture medium): most of the cells fully differentiated into adherent fibroblasts

From patent US20040253718A1, “Methods of producing neurons” (priority 2003, published 2004)
